Experiments:
[1] = system: nocifensive response to formalin; experiment: Formalin test, injection into the paw; format: in vivo; conditions: injected into the paw; counteracted by AM251 and occluded by capsazepine
Source text: (§1) The compounds of formula I are novel agents against […], acting by enhancing endocannabinoid levels (via FAAH inhibition) and at the same time by antagonizing TRPV1.

[2] = system: nociceptive response to formalin injected into the rat paw; experiment: Formalin test, injection into the periaqueductal grey (PAG); format: in vivo
Source text: as §1

[3] = target: fatty acid amide hydrolase (FAAH) (Rattus norvegicus, UniProt P97612)
TRPV1 channels = TRPV1 channels (Homo sapiens, UniProt Q8NER1); experiment: Blocking of TRPV1 channel activation by capsaicin; format: cell-based; conditions: capsaicin 100 nM; FIG. 1A; read-out: IC50 against capsaicin
anandamide levels = experiment: Anandamide levels in the PAG after intra-PAG injection; format: in vivo; conditions: rat, 4 μg/rat intra-PAG, measured 20 min following injection
Source text: as §1

fatty acid amide hydrolase (FAAH), sequence (P97612 whole entry): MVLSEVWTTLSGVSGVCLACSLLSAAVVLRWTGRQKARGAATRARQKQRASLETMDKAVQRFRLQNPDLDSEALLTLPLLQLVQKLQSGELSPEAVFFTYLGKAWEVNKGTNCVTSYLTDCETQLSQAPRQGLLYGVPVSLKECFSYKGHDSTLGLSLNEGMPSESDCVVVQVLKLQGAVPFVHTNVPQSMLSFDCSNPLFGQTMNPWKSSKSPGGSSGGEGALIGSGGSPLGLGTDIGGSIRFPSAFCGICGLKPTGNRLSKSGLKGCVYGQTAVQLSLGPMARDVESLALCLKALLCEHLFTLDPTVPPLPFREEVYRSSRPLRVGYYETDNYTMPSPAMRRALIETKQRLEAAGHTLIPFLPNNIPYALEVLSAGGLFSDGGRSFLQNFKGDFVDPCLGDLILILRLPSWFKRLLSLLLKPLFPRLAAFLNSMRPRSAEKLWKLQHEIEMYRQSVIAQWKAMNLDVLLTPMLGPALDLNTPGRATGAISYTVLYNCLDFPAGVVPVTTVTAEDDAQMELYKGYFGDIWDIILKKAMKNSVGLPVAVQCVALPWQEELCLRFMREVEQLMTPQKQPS
TRPV1 channels, sequence (Q8NER1 whole entry): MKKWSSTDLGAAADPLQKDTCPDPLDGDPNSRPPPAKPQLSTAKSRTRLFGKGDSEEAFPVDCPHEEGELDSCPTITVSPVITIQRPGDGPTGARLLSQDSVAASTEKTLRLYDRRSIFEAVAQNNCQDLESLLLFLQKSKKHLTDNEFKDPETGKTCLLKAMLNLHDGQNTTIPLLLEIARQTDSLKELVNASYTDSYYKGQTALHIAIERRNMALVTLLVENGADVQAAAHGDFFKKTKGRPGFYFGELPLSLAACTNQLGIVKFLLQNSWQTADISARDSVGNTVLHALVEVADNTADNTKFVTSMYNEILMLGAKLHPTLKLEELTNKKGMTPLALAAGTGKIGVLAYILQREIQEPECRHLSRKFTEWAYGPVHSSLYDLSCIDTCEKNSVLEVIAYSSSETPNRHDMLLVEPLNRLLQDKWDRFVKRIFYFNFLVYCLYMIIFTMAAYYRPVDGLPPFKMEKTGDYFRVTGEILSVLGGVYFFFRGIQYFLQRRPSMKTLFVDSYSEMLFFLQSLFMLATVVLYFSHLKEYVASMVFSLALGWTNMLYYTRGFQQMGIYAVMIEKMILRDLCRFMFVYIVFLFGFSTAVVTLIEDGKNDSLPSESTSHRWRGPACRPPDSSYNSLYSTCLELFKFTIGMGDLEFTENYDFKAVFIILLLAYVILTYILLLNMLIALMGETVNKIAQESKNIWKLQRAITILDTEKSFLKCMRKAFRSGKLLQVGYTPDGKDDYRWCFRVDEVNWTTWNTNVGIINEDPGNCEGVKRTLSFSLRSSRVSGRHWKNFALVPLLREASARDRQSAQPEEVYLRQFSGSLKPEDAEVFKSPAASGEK

CCCCCC=CCC=CCC=CCC=CCCCC(=O)NCCc1c[nH]c2ccc(O)cc12 [AA-5-HT, N-arachidonoyl-serotonin]
nocifensive response to formalin [1]: selectively block the 2nd, inflammatory phase | nociceptive response to formalin ([2]; 4 μg/rat injected directly into PAG): potently inhibits both phases | anti-hyperalgesic effect in presence of CB1 receptor antagonist AM251 ([2]; intra-PAG, with AM251 (nmol/rat)): counteracted | anti-hyperalgesic effect in presence of TRPV1 antagonist capsazepine ([2]; intra-PAG, with capsazepine 6 nmol/rat): occluded | type of FAAH inhibition [3]: mixed inhibitors | IC50 (TRPV1 channels): 130 nM | anandamide levels in the PAG (anandamide levels): elevated

Reference: patent US20070259945A1, “METHOD FOR TREATING PAIN” (ALLERGAN, INC., priority 2005, published 2007)
